Results from ChEMBL document CHEMBL4619793, “Pyrazolo[4,3-d]pyrimidine Derivatives as a Novel Hypoxia-Inducible Factor Prolyl Hydroxylase Domain Inhibitor for the Treatment of Anemia” (ACS Med Chem Lett, 2020).
Converted amounts (≈) assume the structure as drawn. The source made the active and inactive calls. The calls are words filed in the database; no cut-off is given here.

How the values were obtained:
Mus musculus [1] = assay: In vivo inhibition of HIF-PHD2 in ICR mouse assessed as serum erythropoietin level at 100 mg/kg, po administered as single dose measured after 6 hrs by immunoassay (reference value: 146 pg/ml); assay type: functional
[2] = Solubility of the compound in buffer at pH 6.5; assay type: physicochemical
[3] = target: Egl nine homolog 1 (Rattus norvegicus) (UniProt P59722); assay: In vivo inhibition of HIF-PHD2 in Sprague-Dawley rat assessed as increase in serum erythropoietin level at 10 mg/kg, po administered as single dose measured after 8 hrs by immunoassay; assay type: functional, organism-based
Sequence of Egl nine homolog 1 (Rattus norvegicus) (P59722 whole entry): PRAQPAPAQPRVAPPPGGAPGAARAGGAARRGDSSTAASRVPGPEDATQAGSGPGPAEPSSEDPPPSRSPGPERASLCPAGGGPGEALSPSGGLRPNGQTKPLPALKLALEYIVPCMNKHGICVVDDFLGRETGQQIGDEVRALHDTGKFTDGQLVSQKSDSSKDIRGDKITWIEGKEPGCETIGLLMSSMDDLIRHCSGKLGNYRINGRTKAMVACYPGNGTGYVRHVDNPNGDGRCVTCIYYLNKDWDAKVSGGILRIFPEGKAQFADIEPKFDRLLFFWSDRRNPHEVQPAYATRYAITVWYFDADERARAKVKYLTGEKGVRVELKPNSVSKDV

[4] = Cmax in Sprague-Dawley rat at 1 mg/kg, po; assay type: ADME, organism-based; design: dose 1 mg/kg, route oral; details: in vivo
[5] = AUC (0 to infinity) in Sprague-Dawley rat at 1 mg/kg, po; assay type: ADME, organism-based; design: dose 1 mg/kg, time infinity, route oral; details: in vivo
[6] = Oral bioavailability in Sprague-Dawley rat at 1 mg/kg; assay type: ADME, organism-based; details: in vivo
[7] = Cmax in Sprague-Dawley rat at 1 mg/kg, iv; assay type: ADME, organism-based; design: dose 1 mg/kg, route intravenous; details: in vivo
[8] = AUC (0 to infinity) in Sprague-Dawley rat at 1 mg/kg, iv; assay type: ADME, organism-based; design: dose 1 mg/kg, time infinity, route intravenous; details: in vivo
[9] = Total clearance in Sprague-Dawley rat at 1 mg/kg, iv; assay type: ADME, organism-based; details: in vivo
[10] = Volume of distribution at steady state in Sprague-Dawley rat at 1 mg/kg, iv; assay type: ADME, organism-based; details: in vivo, read-out: Vdss
Rattus norvegicus [11] = assay: Antianemic activity in kidney excised-induced renal anemia Sprague-Dawley rat model assessed as improvement in blood hemoglobin level at 1 mg/kg, po administered once daily for 4 weeks measured 2 week post initial dose; assay type: functional, organism-based
Rattus norvegicus [12] = assay: Antianemic activity in kidney excised-induced renal anemia Sprague-Dawley rat model assessed as improvement in blood hemoglobin level at 2 mg/kg, po administered once daily for 4 weeks measured 1 week post initial dose; assay type: functional, organism-based
Mus musculus [13] = assay: In vivo inhibition of HIF-PHD2 in ICR mouse assessed as serum erythropoietin level at 10 mg/kg, po administered as single dose measured after 6 hrs by immunoassay (reference value: 125 pg/ml); assay type: functional
Mus musculus [14] = assay: In vivo inhibition of HIF-PHD2 in ICR mouse assessed as serum erythropoietin level at 30 mg/kg, po administered as single dose measured after 6 hrs by immunoassay (reference value: 125 pg/ml); assay type: functional
[15] = Cmax in Sprague-Dawley rat at 10 mg/kg, po; assay type: ADME, organism-based; design: dose 10 mg/kg, route oral; details: in vivo
[16] = AUC (0 to infinity) in Sprague-Dawley rat at 10 mg/kg, po; assay type: ADME, organism-based; design: dose 10 mg/kg, time infinity, route oral; details: in vivo
[17] = Oral bioavailability in Sprague-Dawley rat at 10 mg/kg; assay type: ADME, organism-based; details: in vivo
[18] = Cmax in Sprague-Dawley rat at 0.5 mg/kg, iv; assay type: ADME, organism-based; design: dose 0.5 mg/kg, route intravenous; details: in vivo
[19] = AUC (0 to infinity) in Sprague-Dawley rat at 0.5 mg/kg, iv; assay type: ADME, organism-based; design: dose 0.5 mg/kg, route intravenous, time infinity; details: in vivo
[20] = Total clearance in Sprague-Dawley rat at 0.5 mg/kg, iv; assay type: ADME, organism-based; details: in vivo
[21] = Volume of distribution at steady state in Sprague-Dawley rat at 0.5 mg/kg, iv; assay type: ADME, organism-based; details: in vivo, read-out: Vdss

O=C(O)c1cnn(-c2nc3cn(Cc4ccc(-c5ccccc5)cc4)nc3c(=O)[nH]2)c1
Activity (Mus musculus [1]): 450 pg/mL

C[C@@H](c1cc(Cl)ccc1Cl)n1ncc2nc(-n3cc(C(=O)O)cn3)[nH]c(=O)c21
solubility [2]: > 1000 µg/mL | inhibition [3]: Active | Cmax [4]: 1840 ng/mL | AUC(0-inf) [5]: 23500 ng·h/mL | bioavailability [6]: 77% | Cmax [7]: 12400 ng/mL | AUC(0-inf) [8]: 30400 ng·h/mL | clearance [9]: 0.567 mL/min/kg | Vd [10]: 0.249 L/kg | Activity (Rattus norvegicus [11]): Active | Activity (Rattus norvegicus [12]): Active

O=C(O)c1cnn(-c2nc3cnn(Cc4ccc(-c5ccccc5)cc4)c3c(=O)[nH]2)c1
Activity (Mus musculus [13]): 63000 pg/mL | Activity (Mus musculus [14]): 89000 pg/mL | solubility [2]: 9.5 µg/mL (≈ 23 µM) | Cmax [15]: 2710 ng/mL | AUC(0-inf) [16]: 17800 ng·h/mL | bioavailability [17]: 16% | Cmax [18]: 4910 ng/mL | AUC(0-inf) [19]: 5560 ng·h/mL | clearance [20]: 1.52 mL/min/kg | Vd [21]: 0.197 L/kg

O=C(O)c1cnn(-c2nc3cnn(Cc4ccc(-c5ccc(F)cc5)c(F)c4)c3c(=O)[nH]2)c1
solubility [2]: 49 µg/mL (≈ 109 µM)

O=C(O)c1cnn(-c2nc3cnn(Cc4ccc(Cl)c(Cl)c4)c3c(=O)[nH]2)c1
solubility [2]: 88 µg/mL (≈ 217 µM)

C[C@@H](c1ccc(Cl)c(Cl)c1)n1ncc2nc(-n3cc(C(=O)O)cn3)[nH]c(=O)c21
solubility [2]: 75 µg/mL (≈ 179 µM)
